The subject of assay [1] is neural co-cultures consisting of primary glial cells and glutamatergic excitatory iN cells. Briefly: MEA recording of neuronal network activity, pure excitatory co-culture (Example 3). Type of assay: cell-based, human. To be noted: for decrease of the frequency of total bursts / decrease of the frequency of total spikes (mean firing rate): dosed vs baseline. Here is the method: Induced excitatory neurons were seeded at day 4 after induction by transcriptional activation of the neurogenic transcription factor NGN2, on 12-well MEA plates (Axion BioSystems) coated with matrigel. A total of 600,000 iN cells were plated per well. Primary glial cells were obtained by dissociating brains of mouse pups at postnatal day 3 with hippocampal and cerebellar structures being removed in advance. Dissociated brains were pre-cultured and passaged twice to remove primary neurons. Glial cells were then seeded directly on the plated iN cells at a density of 120,000 cells per well.
Recordings of spontaneous neuronal activity were performed at 1, 2, 3, and 4 weeks after plating for a period of 10 minutes each.
Neural co-cultures were produced as described under Example 1. […] Recordings were performed at week 4 in culture for 10 minutes for each condition including baseline measurements prior to compound application and test measurements following the addition of a single compound. Between baseline and test condition recordings, the plates were store in an incubator (37° C., 5% CO2) to readjust pH of the media. Each compound was applied to a different well in order to prevent secondary effects of previous treatments. First, the effect of the common compound solvent DMSO was tested by adding 0.1% to the neural co-culture medium. As depicted in FIG. 6A i and ii, DMSO alone increased the frequency of total spikes (mean firing rate) and the frequency of total bursts by 0.2 Hz and 0.018 Hz, respectively. Moreover, a minor increase in synchrony could be detected increasing the percentage of bursts within synchronized network activity by approximately 5%.

In assay [2] the test system is neural co-cultures consisting of primary glial cells and a mixture of glutamatergic excitatory iN cells and GABAergic inhibitory iN cells. The assay can be described thus: MEA recording of neuronal network activity, mixed excitatory/inhibitory co-culture approx. 70%/30% (Example 4). Type of assay: cell-based, human. To be noted: 50 μM, excitatory/inhibitory approx. 70%/30%. Here is the method: Induced excitatory neurons were seeded at day 4 and induced inhibitory neurons were seeded at day 6 after induction. A total of 200000 excitatory iN cells and 200000 inhibitory iN cells were plated simultaneously per well on 12-well MEA plates (Axion BioSystems) coated with matrigel. Primary glial cells were obtained as described in Example 1, and seeded directly on the plated iN cells at a density of 100000 cells per well.
Neural co-cultures were produced as described under Example 2 resulting in excitatory/inhibitory iN cell ratio of approximately 70%/30%. Recordings of neuronal activity, threshold values, and the procedure of measuring baseline and test conditions were performed as described under Example 3. Here, the effect of PTX was tested by adding a final concentration of 50 μM to the neural co-culture medium.

Assay [3] relates to neural co-cultures with a stronger inhibitory component (excitatory/inhibitory iN cells 50%/50%, glial cells from human primary NSCs). Briefly: MEA recording of neuronal network activity, mixed excitatory/inhibitory co-culture approx. 50%/50% with human glial cells (Example 4, second experiment). It counts as cell-based. To be noted: 50 μM, excitatory/inhibitory approx. 50%/50%, 4 weeks in culture. Here is the method: In a second experiment, the effect of PTX on synchronized neuronal network activity in neural co-cultures with a stronger inhibitory component was assessed. For this purpose, a total of 100,000 excitatory iN cells and 300,000 inhibitory iN cells were plated simultaneously per well on 12-well MEA plates (Axion BioSystems) coated with matrigel. Glial cells were derived from human primary NSCs as described above and seeded directly on the plated iN cells at a density of 100,000 cells per well. Due to the different apoptosis rates of the two iN cells types mentioned earlier, the final ratio of excitatory/inhibitory neurons after 4 weeks in culture was approximately 50%/50%.
The effect of PTX was tested by adding a final concentration of 50 μM to the neural co-culture medium.

Assay [4] has as its system neural co-cultures consisting of primary human glial cells and a mixture of glutamatergic excitatory iN cells and GABAergic inhibitory iN cells. Briefly: Bicuculline-induced seizure-like network activity on MEA and co-application of antiepileptic drugs (Example 7). Type of assay: cell-based. Conditions: co-application with 1 μM bicuculline, 3 doses. Here is the method:
Generation of human neural co-cultures and MEA recording settings and thresholds were as described under Example 6. […] Co-application of AEDs was performed in 3 different doses and each condition was tested in 6 technical replicates.

Entries after “also recorded” stand apart in the source; their conditions may differ.

With `NC(CCCP(=O)(O)O)C(=O)O` (stereo not shown) [AP5], in assay [1] (50 μM, week 4 in culture), the “reduction of the average duration of bursts” value was “about 30%”, the “synchronized network activity as measured by network burst percentage” value is “reduced”, the “decrease of the frequency of total bursts” value is reported as 0.004 Hz and the “decrease of the frequency of total spikes (mean firing rate)” value came to 0.2 Hz.
On to picrotoxin [PTX], for which, in assay [2], the “increase of synchrony of network bursts” value is on record as around 60%; the “spike and burst frequencies” value is recorded as “increase”. In assay [1] (50 μM in 0.1% DMSO, pure excitatory culture without GABAergic cells), the “change in spike and burst frequencies and synchronized network activity” value is “largely corresponded to the changes observed upon application of 0.1% DMSO”. In addition, the “synchronized network burst pattern” value in assay [3] is listed as “extended synchronized bursts with shortening inter-burst intervals”.
For the molecule `O=C1NC(=O)C(c2ccccc2)(c2ccccc2)N1` [phenytoin], the “mean firing rate, network burst duration, and synchrony” value in assay [4] is “to baseline level (solvent control), or further reduced; also recorded: dose-dependent decrease”.
For the molecule `Nc1nnc(-c2cccc(Cl)c2Cl)c(N)n1` [lamotrigine], the “mean firing rate, network burst duration, and synchrony” value in assay [4] is “to baseline level (solvent control), or further reduced; also recorded: dose-dependent decrease”.
With `N#Cc1cc2[nH]c(=O)c(=O)[nH]c2cc1[N+](=O)[O-]` [CNQX], in assay [1] (20 μM, week 4 in culture), the “occurrence of synchronized network activity” value was “completely abolished”, the “decrease of the frequency of total bursts” value is reported as 0.005 Hz and the “decrease of the frequency of total spikes (mean firing rate)” value is given as 0.4 Hz.

The values above are taken from patent publication US20220348885A1, “BIOLOGICALLY RELEVANT IN VITRO SCREENING OF HUMAN NEURONS” (The Board of Trustees of the Leland Stanford Junior …, priority 2016, published 2022).
